Reference: patent publication US6462060B2, “Heterocyclic-hydroxyimino-fluorene nuclei compounds and pharmaceutical compositions for inhibiting protein kinases, and methods for their use” (Agouron Pharmaceuticals, Inc., priority 2000, dated 2002)

Key:
CHK-1 KH289 = target: T1, CHK-1 KH289 (Homo sapiens, UniProt O14757); experiment: CHK-1 assay (coupled spectrophotometric, Syntide-2); assay type: biochemical; settings: for Ki: 10 nM CHK-1 KH289, 0.15 mM ATP
T1 construct: CHK-1 KH289 contains residues 1-289 of human CHK-1; 6xHis (C); made in house; host or cells: baculovirus/insect cell system
T1 sequence (O14757 1-289): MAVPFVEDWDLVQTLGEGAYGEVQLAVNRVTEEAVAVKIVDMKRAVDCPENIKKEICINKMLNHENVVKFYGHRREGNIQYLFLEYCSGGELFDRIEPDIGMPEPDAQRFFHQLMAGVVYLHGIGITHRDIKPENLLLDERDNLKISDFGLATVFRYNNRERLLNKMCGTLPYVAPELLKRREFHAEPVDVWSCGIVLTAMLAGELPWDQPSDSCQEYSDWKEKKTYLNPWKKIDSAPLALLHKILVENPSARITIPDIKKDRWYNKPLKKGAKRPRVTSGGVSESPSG
Excerpt: CHK-1 KH289 contains residues 1-289 of human CHK-1 including the kinase domain. It contains 6 histidine residues (6×His-tag) at the C-terminus of residue 289. The protein was expressed in a baculovirus/insect cell system and purified by conventional chromatographic techniques.
(§1) The production of ADP from ATP that accompanies phosphoryl transfer to the synthetic substrate peptide Syntide-2 ([…]) was coupled to oxidation of NADH using phosphoenolpyruvate (PEP) through the actions of pyruvate kinase (PK) and lactic dehydrogenase (LDH). The oxidation of NADH was monitored by following the decrease of absorbance at 340 nm (ε340=6.22 cm^−1 mM^−1) using a HP8452 spectrophotometer. Typical reaction solutions contained: 4 mM PEP; 0.15 mM NADH; 28 units of LDH/ml; 16 units of PK/ml; 3 mM DTT; 0.125 mM Syntide2Σ; 0.15 mM ATP; 25 mM MgCl2 in 50 mM TRIS, pH 7.5; and 400 mM NaCl. Assays were initiated with 10 nM of CHK-1 KH289. Ki values were determined by measuring initial enzyme activity in the presence of varying concentrations of test compounds. The data were analyzed using Enzyme Kinetic and Kaleidagraph software.

[1] = target: T2, phosphorylated VEGF-R2Δ50 (FLVK-P) (Homo sapiens, UniProt P35968, DEL940-989/E990V); experiment: VEGF-R2 coupled spectrophotometric (FLVK-P) assay; assay type: biochemical; settings: phosphorylated VEGF-R2Δ50, 1 mM ATP
T2 construct: VEGF-R2Δ50 contains residues 806-939 and 990-1171; made in house; host or cells: baculovirus/insect cell system
Excerpt: VEGF-R2 Construct for Assay: A construct (VEGF-R2Δ50) of the cytosolic domain of human vascular endothelial growth factor receptor 2 (VEGF-R2) lacking the 50 central residues of the 68 residues of the kinase insert domain was expressed in a baculovirus/insect cell system. Of the 1356 residues of full-length VEGF-R2, VEGF-R2Δ50 contains residues 806-939 and 990-1171, and also one point mutation (E990V) within the kinase insert domain relative to wild-type VEGF-R2. See McTigue et al., Structure, 7, 319-330 (1999); U.S. patent application Ser. No. 09/390,326, filed Sep. 7, 1999. Autophosphorylation of the purified construct was performed by incubation of the enzyme at a concentration of 4 μM in the presence of 3 mM ATP and 40 mM MgCl2 in 100 mM Hepes, pH 7.5, containing 5% glycerol and 5 mM DTT, at 4° C. for 2 h. […] See Parast et al., Biochemistry, 37, 16788-16801 (1998).
Coupled Spectrophotometric (FLVK-P) Assay
The production of ADP from ATP that accompanies phosphoryl transfer was coupled to oxidation of NADH using phosphoenolpyruvate (PEP) and a system having pyruvate kinase (PK) and lactic dehydrogenase (LDH). The oxidation of NADH was monitored by following the decrease of absorbance at 340 nm (e340=6.22 cm^−1 mM^−1) using a Beckman DU 650 spectrophotometer. Assay conditions for phosphorylated VEGF-R2Δ50 (indicated as FLVK-P in the tables below) were the following: 1 mM PEP; 250 μM NADH; 50 units of LDH/mL; 20 units of PK/mL; 5 mM DTT; […]; 1 mM ATP; and 25 mM MgCl2 in 200 mM Hepes, pH 7.5. Assay conditions for unphosphorylated VEGF-R2Δ50 (indicated as FLVK in the tables) were the following: 1 mM PEP; 250 ,M NADH; 50 units of LDH/mL; 20 units of PK/mL; 5 mM DTT; 20 mM poly(E4Y1); 3 mM ATP; and 60 mM MgCl2 and 2 mM MnCl2 in 200 mM Hepes, pH 7.5. Assays were initiated with 5 to 40 nM of enzyme. Ki values were determined by measuring enzyme activity in the presence of varying concentrations of test compounds. The data were analyzed using Enzyme Kinetic and Kaleidagraph software.

CDK4/Cyclin D3 complex = target: T3, CDK4/Cyclin D3 complex (Homo sapiens, UniProt P11802); experiment: CDK4/Cyclin D assay (32P incorporation into Rb fragment); assay type: biochemical; settings: apparent Ki; 50 nM CDK4/Cyclin D3 complex, 25 μM ATP
T3 construct: made in house; host or cells: insect cells co-infected with baculovirus expression vectors
Method: CDK4/Cyclin D Construct for Assay: A complex of human CDK4 and cyclin D3, or a complex of cyclin D1 and a fusion protein of human CDK4 and glutathione-S-transferase (GST-CDK4), was purified using traditional biochemical chromatographic techniques from insect cells that had been co-infected with the corresponding baculovirus expression vectors.
(§2) CDK2/Cyclin A and CDK4/Cyclin D Assays
Cyclin-dependent kinase activity was measured by quantifying the enzyme-catalyzed, time-dependent incorporation of radioactive phosphate from [^32P]ATP into a recombinant fragment of the retinoblastoma protein. Unless noted otherwise, assays were performed in 96-well plates in a total volume of 50 μL, in the presence of 10 mM HEPES (N-[2-hydroxyethyl]piperazine-N′-[2-ethanesulfonic acid]) (pH 7.4), 10 mM MgCl2, 25 μM adenosine triphosphate (ATP), 1 mg/mL ovalbumin, 5 μg/mL leupeptin, 1 mM dithiothreitol, 10 mM β-glycerophosphate, 0.1 mM sodium vanadate, 1 mM sodium fluoride, 2.5 mM ethylene glycol-bis(β-aminoethyl ether)-N,N,N′N′-tetraacetic acid (EGTA), 2% (v/v) dimethylsulfoxide, and 0.03-0.2 μCi [^32P]ATP. The substrate (0.3-0.5 μg) was purified recombinant retinoblastoma protein fragment (Rb) (residues 386-928 of the native retinoblastoma protein; 62.3 kDa, containing the majority of the phosphorylation sites found in the native 1 06kDa protein, as well as a tag of six histidine residues for ease of purification). Reactions were initiated with CDK2 (150 nM CDK2/Cyclin A complex) or CDK4 (50 nM CDK4/Cyclin D3 complex), incubated at 30° C., and terminated after 20 minutes by the addition of ethylenediaminetetraacetic acid (EDTA) to 250 mM. The phosphorylated substrate was then captured on a nitrocellulose membrane using a 96-well filtration manifold, and unincorporated radioactivity was removed by repeated washing with 0.85% phosphoric acid. Radioactivity was quantified by exposing the dried nitrocellulose membranes to a phosphorimager. Apparent Ki values were measured by assaying enzyme activity in the presence of different compound concentrations and subtracting the background radioactivity measured in the absence of enzyme. The kinetic parameters (kcat, Km for ATP) were measured for each enzyme under the usual assay conditions by determining the dependence of initial rates on ATP concentration. The data were fit to an equation for competitive inhibition using Kaleidagraph (Synergy Software), or were fit to an equation for competitive tight-binding inhibition using the software KineTic (BioKin, Ltd.). The specific activity of CDK4 was the same whether complexed to full-length cyclin D3 or the truncated Cyclin D3 construct; both complexes also yielded very similar Ki values for selected inhibitors.

CDK2/Cyclin A complex = CDK2/Cyclin A complex (Homo sapiens, UniProt P24941); experiment: CDK2/Cyclin A assay (32P incorporation into Rb fragment); assay type: biochemical; settings: apparent Ki; 150 nM CDK2/Cyclin A complex, 25 μM ATP
Excerpt: CDK2/Cyclin A Construct for Assay: CDK2 was purified using published methodology (Rosenblatt et al., J. Mol. Biol., 230, 1317-1319 (1993)) from insect cells that had been infected with a baculovirus expression vector. Cyclin A was purified from E. coli cells expressing full-length recombinant cyclin A, and a truncated cyclin A construct was generated by limited proteolysis and purified as described previously (Jeffrey et al., Nature, 376, 313-320 (1995)).
as §2
Cyclin-dependent kinase activity was measured by quantifying the enzyme-catalyzed, time-dependent incorporation of radioactive phosphate from [^32P]ATP into a recombinant fragment of the retinoblastoma protein. […] The phosphorylated substrate was then captured on a nitrocellulose membrane using a 96-well filtration manifold, and unincorporated radioactivity was removed by repeated washing with 0.85% phosphoric acid. Radioactivity was quantified by exposing the dried nitrocellulose membranes to a phosphorimager. Apparent Ki values were measured by assaying enzyme activity in the presence of different compound concentrations and subtracting the background radioactivity measured in the absence of enzyme. The kinetic parameters (kcat, Km for ATP) were measured for each enzyme under the usual assay conditions by determining the dependence of initial rates on ATP concentration. […]

HCT 116 cells = experiment: Inhibition of cell growth, MTT assay, HCT 116; assay type: cell-based; settings: Homo sapiens, HCT-116, 144 h, four to six days incubation
Method: (§3) Inhibition of Cell Growth: Assessment of Anti-proliferation with U2-OS, SAOS2, HCT116 Cancer Cell Lines
(§4) Inhibition of cell growth was measured using the tetrazolium salt assay, which is based on the ability of viable cells to reduce 3-(4,5-dimethylthiazol-2-yl)-2,5-[2H]-diphenyltetrazolium bromide (MTT) to formazan (Mossman, J. Immunological Methods, 65, 55-58 (1983)). The water-insoluble purple formazan product was then detected spectrophotometrically. The HCT 116, U2-OS, and SAOS 2 cell lines were each grown in 96-well plates, respectively. Cells were plated in the appropriate medium at a volume of 135 μL/well in McCoy's 5A Medium. Plates were incubated for 4 h before addition of inhibitor compounds.
(§5) Different concentrations of inhibitor compounds were added in 0.5% (v/v) dimethylsulfoxide (μL/well), and cells were incubated at 37° C. (5% CO2) for four to six days (depending on cell type). At the end of the incubation, MTT was added to a final concentration of 0.2 mg/mL, and cells were incubated for 4 h more at 37° C. After centrifugation of the plates and removal of medium, the absorbance of the formazan (solubilized in dimethylsulfoxide) was measured at 540 nm. The concentration of inhibitor compound causing 50% inhibition of growth was determined from the linear portion of a semi-log plot of inhibitor concentration versus percentage inhibition. […]

SAOS 2 cells = experiment: Inhibition of cell growth, MTT assay, SAOS 2; assay type: cell-based; settings: Homo sapiens, SAOS-2, 144 h, four to six days incubation, read-out: SAOS2 IC50
Method: as §3, §4, §5

U2-OS cells = experiment: Inhibition of cell growth, MTT assay, U2-OS; assay type: cell-based; settings: Homo sapiens, U2OS, 144 h, four to six days incubation
Method: as §3, §4, §5

CDS1/CHK-2 (CDS1 CE4) = target: T4, CDS1/CHK-2 (CDS1 CE4) (Homo sapiens, UniProt O96017); experiment: CDS1 assay (conditions identical to the CHK-1 assay); assay type: biochemical; settings: 10 nM CDS1
T4 construct: CDS1 CE4 contains residues 209-502 including the kinase domain; 6xHis leader with thrombin site; first M absent from the expressed protein) (N); made in house; host or cells: E. coli
Excerpt: CDS1 Construct for Assay: CDS1 CE4 contains residues 209-502 including the kinase domain of human CDS1/CHK-2 (GenBank accession number AFO86904, Matsuoka et al., Science, 282, 1893-97 (1998)). It contains the amino acid sequence: […] at the N-terminus of residue 209. (The first M is not present in the expressed protein due to post-translational processing of the N-terminus.) The protein was expressed in E. coli and purified by conventional chromatographic techniques.
as §1
The CDS 1 assay was prepared under identical conditions to that of the CHK-1 assay, except with the use of 10 nM of CDS1.

T2 sequence (P35968 with tags, fused parts or gaps DEL940-989/E990V limits assumed): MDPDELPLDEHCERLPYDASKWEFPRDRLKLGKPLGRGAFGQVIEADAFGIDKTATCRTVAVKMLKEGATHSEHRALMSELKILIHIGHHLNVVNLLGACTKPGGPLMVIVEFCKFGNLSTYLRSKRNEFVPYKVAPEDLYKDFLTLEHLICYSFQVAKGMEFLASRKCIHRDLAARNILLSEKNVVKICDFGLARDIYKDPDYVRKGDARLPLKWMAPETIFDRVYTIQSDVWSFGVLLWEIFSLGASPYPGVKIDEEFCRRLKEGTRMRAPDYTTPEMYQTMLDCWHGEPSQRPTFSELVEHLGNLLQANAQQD
T4 sequence (O96017 209-502): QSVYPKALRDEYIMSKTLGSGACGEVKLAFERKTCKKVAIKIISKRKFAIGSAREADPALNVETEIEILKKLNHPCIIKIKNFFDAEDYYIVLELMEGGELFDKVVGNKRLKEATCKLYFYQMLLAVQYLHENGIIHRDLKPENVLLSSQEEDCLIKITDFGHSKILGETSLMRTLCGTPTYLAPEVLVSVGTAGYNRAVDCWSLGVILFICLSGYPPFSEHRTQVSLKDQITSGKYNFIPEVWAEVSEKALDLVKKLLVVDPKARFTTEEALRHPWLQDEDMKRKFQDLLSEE
T3 sequence (P11802 whole entry, the tested form may be a part): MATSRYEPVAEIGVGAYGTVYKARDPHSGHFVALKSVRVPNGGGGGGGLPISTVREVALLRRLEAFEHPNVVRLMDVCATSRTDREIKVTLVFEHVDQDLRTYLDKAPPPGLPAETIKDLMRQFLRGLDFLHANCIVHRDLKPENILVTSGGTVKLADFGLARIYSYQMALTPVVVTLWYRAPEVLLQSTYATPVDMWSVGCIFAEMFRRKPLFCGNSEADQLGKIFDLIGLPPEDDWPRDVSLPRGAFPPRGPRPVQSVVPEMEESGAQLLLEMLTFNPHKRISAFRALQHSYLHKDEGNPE
T3 sequence (P30281 whole entry partner, the tested form may be a part): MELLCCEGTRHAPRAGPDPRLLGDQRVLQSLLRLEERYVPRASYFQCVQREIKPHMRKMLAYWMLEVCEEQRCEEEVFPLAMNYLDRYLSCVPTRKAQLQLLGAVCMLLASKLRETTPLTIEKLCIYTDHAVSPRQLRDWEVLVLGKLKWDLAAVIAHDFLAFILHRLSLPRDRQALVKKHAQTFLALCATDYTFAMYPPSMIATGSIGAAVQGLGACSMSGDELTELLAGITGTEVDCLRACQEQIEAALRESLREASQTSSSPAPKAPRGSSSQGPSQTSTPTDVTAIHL

Row | SMILES | Ki (CHK-1 KH289) | Ki [1] | Ki (CDK4/Cyclin D3 complex) | melting point | Ki (CDK2/Cyclin A complex) | IC50 (HCT 116 cells) | IC50 (SAOS 2 cells) | IC50 (U2-OS cells) | Ki (CDS1/CHK-2 (CDS1 CE4)) | inhibition at 10 µM (CHK-1 KH289; at 10 μM, read-out: CHK-1 KH289 percent inhibition) | inhibition at 25 µM (CHK-1 KH289; at 25 μM, read-out: CHK-1 KH289 percent inhibition)
1 | ON=C1c2ccccc2-c2cc3[nH]cnc3cc21 (mixture of isomers) [Example A, 9(E/Z)-Hydroxyimino-3H-fluoreno[2,3-d]imidazole] | 3600 nM | 1330 nM | 2360 nM | – | – | – | – | – | – | – | –
2 | Nc1nc2cc3c(cc2[nH]1)-c1ccccc1C3=NO (mixture of isomers) [Example B, 2-Amino-9(E/Z)-hydroxyimino-3H-fluoreno[2,3-d]imidazole] | 5800 nM | 1900 nM | 790 nM | 240 to 242 °C | – | – | – | – | – | – | –
3 | ON=C1c2ccccc2-c2cc3[nH]nnc3cc21 (mixture of isomers) [Example C, 9(E/Z)-Hydroxyimino-3H-fluoreno[2,3-d]-1,2,3-triazole] | 571 nM | 1470 nM | 213 nM | – | 680 nM | 10400 nM | 11000 nM | 18000 nM | – | – | –
4 | ON=C1c2cc(I)ccc2-c2cc3[nH]nnc3cc21 (mixture of isomers) [Example D, 9(E/Z)-Hydroxyimino-7-iodo-3H-fluoreno[2,3-d]-1,2,3-triazole] | 166 nM | – | 1200 nM | – | – | – | – | – | 21 nM | – | –
5 | O/N=C1/c2ccccc2-c2nc3nonc3nc21 [Comparison Ex. 1, reference compound] | 26600 nM | 15900 nM | 2100 nM | – | – | – | – | – | 15000 nM | – | –
6 | Nc1cc2c(cc1[N+](=O)[O-])-c1ccccc1C2=NO [Comparison Ex. 2(a), reference compound] | – | 15500 nM | 1790 nM | – | – | – | – | – | – | 14% | –
7 | Nc1cc2c(cc1N)-c1ccccc1C2=NO [Comparison Ex. 2(b), reference compound] | 8100 nM | 923 nM | 3210 nM | – | – | – | – | – | 604 nM | – | –
8 | Nc1cc2c(cc1[N+](=O)[O-])-c1cc([N+](=O)[O-])c(N)cc1C2=NO [Comparison Ex. 2(c), reference compound] | – | – | 3620 nM | – | – | – | – | – | 37000 nM | – | 33%
